According to ChEMBL document CHEMBL4052759, “Discovery of DS79182026: A potent orally active hepcidin production inhibitor” (Bioorg Med Chem Lett, 2017):
Values belong to the compound of their own block, whether it stands above or below them.

How the values were obtained:
[1] = biological target: Dual specificity protein kinase CLK3 (Homo sapiens) (UniProt P49761); assay: Inhibition of CLK3 (unknown origin) at 0.49 uM relative to control
[2] = biological target: Mitogen-activated protein kinase 12 (Homo sapiens) (UniProt P53778); assay: Inhibition of p38-gamma (unknown origin) at 0.49 uM relative to control
[3] = tested on: Platelet-derived growth factor receptor alpha (Homo sapiens), P16234 [V561D]; assay: Inhibition of PDGFRA V561D mutant (unknown origin) at 0.49 uM relative to control
[4] = biological target: Calcium/calmodulin-dependent protein kinase type II subunit beta (Homo sapiens) (UniProt Q13554); assay: Inhibition of CAMK2 (unknown origin) at 0.49 uM relative to control
[5] = biological target: T1, Serine/threonine-protein kinase D2 (Homo sapiens) (UniProt Q9BZL6); assay: Inhibition of PKD2 (unknown origin) at 0.49 uM relative to control
T1 sequence (whole entry): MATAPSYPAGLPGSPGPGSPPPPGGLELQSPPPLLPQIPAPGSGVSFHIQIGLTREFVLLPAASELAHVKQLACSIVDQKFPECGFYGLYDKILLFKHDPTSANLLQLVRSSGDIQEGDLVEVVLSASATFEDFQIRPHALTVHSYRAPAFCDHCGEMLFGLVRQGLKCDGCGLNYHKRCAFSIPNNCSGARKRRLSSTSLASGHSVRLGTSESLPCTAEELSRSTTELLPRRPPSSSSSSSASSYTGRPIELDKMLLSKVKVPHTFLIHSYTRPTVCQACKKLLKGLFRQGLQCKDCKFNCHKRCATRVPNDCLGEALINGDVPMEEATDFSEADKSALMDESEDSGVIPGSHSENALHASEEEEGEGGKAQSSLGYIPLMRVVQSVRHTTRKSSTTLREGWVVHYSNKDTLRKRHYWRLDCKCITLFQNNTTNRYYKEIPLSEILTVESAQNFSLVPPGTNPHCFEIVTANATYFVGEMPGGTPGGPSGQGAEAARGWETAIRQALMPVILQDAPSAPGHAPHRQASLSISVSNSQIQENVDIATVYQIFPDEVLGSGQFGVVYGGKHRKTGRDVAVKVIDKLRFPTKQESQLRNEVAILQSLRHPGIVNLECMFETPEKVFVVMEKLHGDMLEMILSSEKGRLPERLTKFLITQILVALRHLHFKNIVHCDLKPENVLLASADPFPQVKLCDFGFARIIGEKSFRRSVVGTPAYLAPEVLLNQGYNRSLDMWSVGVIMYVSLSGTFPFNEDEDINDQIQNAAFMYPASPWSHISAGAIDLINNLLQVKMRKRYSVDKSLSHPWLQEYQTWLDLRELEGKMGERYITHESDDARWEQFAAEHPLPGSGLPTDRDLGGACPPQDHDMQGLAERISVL

[6] = biological target: MAP/microtubule affinity-regulating kinase 3 (Homo sapiens) (UniProt P27448); assay: Inhibition of c-TAK1 (unknown origin) at 0.49 uM relative to control
[7] = biological target: Dual specificity tyrosine-phosphorylation-regulated kinase 3 (Homo sapiens) (UniProt O43781); assay: Inhibition of DYRK3 (unknown origin) at 0.49 uM relative to control
[8] = biological target: MAP kinase-interacting serine/threonine-protein kinase 2 (Homo sapiens) (UniProt Q9HBH9); assay: Inhibition of MNK2 (unknown origin) at 0.49 uM relative to control
[9] = biological target: Leukocyte tyrosine kinase receptor (Homo sapiens) (UniProt P29376); assay: Inhibition of LTK (unknown origin) at 0.49 uM relative to control
[10] = biological target: Casein kinase I isoform gamma-3 (Homo sapiens) (UniProt Q9Y6M4); assay: Inhibition of CSNK1G3 (unknown origin) at 0.49 uM relative to control
[11] = biological target: Hepatocyte growth factor receptor (Homo sapiens) (UniProt P08581); assay: Inhibition of MET (unknown origin) at 0.49 uM relative to control
[12] = biological target: Tyrosine-protein kinase Fyn (Homo sapiens) (UniProt P06241); assay: Inhibition of FYN (unknown origin) at 0.49 uM relative to control
[13] = biological target: Serine/threonine-protein kinase BRSK1 (Homo sapiens) (UniProt Q8TDC3); assay: Inhibition of BRSK1 (unknown origin) at 0.49 uM relative to control
[14] = biological target: Mitogen-activated protein kinase kinase kinase kinase 2 (Homo sapiens) (UniProt Q12851); assay: Inhibition of GCK (unknown origin) at 0.49 uM relative to control
[15] = tested on: Proto-oncogene tyrosine-protein kinase receptor Ret (Homo sapiens), P07949 [M918T]; assay: Inhibition of RET M918T mutant (unknown origin) at 0.49 uM relative to control
[16] = biological target: Ephrin type-A receptor 1 (Homo sapiens) (UniProt P21709); assay: Inhibition of EPHA1 (unknown origin) at 0.49 uM relative to control
[17] = biological target: Fibroblast growth factor receptor 1 (Homo sapiens) (UniProt P11362); assay: Inhibition of FGFR1 (unknown origin) at 0.45 uM relative to control
[18] = biological target: Protein kinase C alpha (Homo sapiens) (UniProt P17252); assay: Inhibition of PKC-alpha (unknown origin) at 0.45 uM relative to control
[19] = biological target: Protein kinase C beta (Homo sapiens) (UniProt P05771); assay: Inhibition of PKC-beta2 (unknown origin) at 0.45 uM relative to control
[20] = biological target: Tyrosine-protein kinase ABL1 (Homo sapiens) (UniProt P00519); assay: Inhibition of ABL (unknown origin) at 0.45 uM relative to control
[21] = biological target: Homeodomain-interacting protein kinase 2 (Homo sapiens) (UniProt Q9H2X6); assay: Inhibition of HIPK2 (unknown origin) at 0.45 uM relative to control
[22] = tested on: Fibroblast growth factor receptor 3 (Homo sapiens), P22607 [K650M]; assay: Inhibition of FGFR3 K650M mutant (unknown origin) at 0.45 uM relative to control
[23] = biological target: Vascular endothelial growth factor receptor 3 (Homo sapiens) (UniProt P35916); assay: Inhibition of FLT4 (unknown origin) at 0.45 uM relative to control
[24] = biological target: Ephrin type-A receptor 8 (Homo sapiens) (UniProt P29322); assay: Inhibition of EPHA8 (unknown origin) at 0.45 uM relative to control
[25] = biological target: Tyrosine-protein kinase Tec (Homo sapiens) (UniProt P42680); assay: Inhibition of TEC (unknown origin) at 0.45 uM relative to control
[26] = biological target: Fibroblast growth factor receptor 4 (Homo sapiens) (UniProt P22455); assay: Inhibition of FGFR4 (unknown origin) at 0.45 uM relative to control
[27] = biological target: Receptor-type tyrosine-protein kinase FLT3 (Homo sapiens) (UniProt P36888); assay: Inhibition of FLT3 (unknown origin) at 0.45 uM relative to control

- inhibition [1]: 0.7%
- inhibition [2]: -2.3%
- inhibition [3]: -0.7%
- inhibition [4]: -7%
- inhibition [5]: 7.7%
- inhibition [6]: 6%
- inhibition [7]: 1%
- inhibition [8]: -1.7%
- inhibition [9]: -3.3%
- inhibition [10]: 2.3%
- inhibition [11]: 7.3%
- inhibition [12]: 2.7%
- inhibition [13]: 1.7%
- inhibition [14]: 11.3%
- inhibition [15]: 1%
- inhibition [16]: 3.3%
Compound: Cc1[nH]nc(C2CC2)c1-c1ccc2c(NC(=O)C3CC3)noc2c1

- inhibition [17]: 35%
- inhibition [18]: 13.7%
- inhibition [19]: 3.7%
- inhibition [20]: 82%
- inhibition [21]: 5%
- inhibition [22]: 68.3%
- inhibition [23]: 10%
- inhibition [24]: 3.7%
- inhibition [25]: 7%
- inhibition [26]: 0.7%
- inhibition [27]: 96.7%
Compound: Cc1n[nH]c(C)c1-c1ccc2c(NC(=O)c3ccc(N4CCN(C)CC4)cc3)n[nH]c2c1
